Results published in patent US20070037783A1, “Migrastatin analogs and uses thereof” (priority 2003, published 2007).

Assays:
HUVEC = test: Tube formation assay (preliminary, Table 1); type: cell-based, human; conditions: minimal concentration causing definite disturbance of tube network, 16-18 h, tested 200, 100, 50, 25, 10 μM
Experimental: 1. Tube Formation Assay (Table 1):
A protocol was designed based on the instructions from the provider (BD Bioscience, San Jose, Calif.). Briefly, wells of a 48 well culture dish were covert with 150 μL matrigel and the matrigel was gelatinized for 30 min at 37° C. A 80-90% confluent HUVEC (BD Bioscience, San Jose, Calif.) culture was trypsin treated, the detached cells were collected by centrifugation and resuspended in EGM-2 media (BD Bioscience, San Jose, Calif.). Cell concentration was adjusted to 100.000 cells/mL. 400 μL of the cell suspension were filled in the matrigel coated wells, and a solution of the inhibitor was added to the intended final concentration. The plates were incubated at 37° C. with 5% CO2 for 16-18 h. Media was removed, and the matrigel surface was washed twice with 500 μL PBS before cells were labeled with 250 μL 8 μM Calcein AM (Pierce, Rockford, Ill.) in PBS for 30 min at 37° C. After two additional washing steps (500 μL PBS) cells were visualized under an inverted microscope. Fluorescence was excited at 488 nm and recorded at 538 nm. The minimum effect concentration was defined as the minimal inhibitor concentration that caused a definite disturbance of the complexity of the formed tube network.

[1] = system: adherent cells (e.g. KYSE-520 cells); test: Wound healing (scratch) assay (preliminary, Table 2); type: cell-based; conditions: 28 to 30 h, compared to 100 μM Migrastatin, tested 200, 100, 50, 25, 10 μM
Experimental: 2. Wound Healing Assay (Table 2)
The wound healing assay was performed based on the method described by Nakae et al. (Nakae et al., J. Antibiotics (2000), 53, 1130-1136). Briefly, adherent cells were grown in a suitable media to confluence (e.g. KYSE-520 cells in RPMI-1640 with 10% FBS). Cells were starved for 24 h in serum free media. A scratch (ca. 0.5 mm) was applied and the cell layer was washed twice with PBS after removal of the media. Fresh, serum free media with the test compound at the desired concentration was added and the cells were incubated for 28 to 30 h at 37° C., 5% CO2. The scratch size was compared to that observed for cells exposed to 100 μM Migrastatin. Test compounds associated with a scratch size equal to or larger than that observed for cells exposed to 100 μM Migrastatin were deemed to have cell migration inhibitory activity at least equal to Migrastatin.

cells = test: Chamber cell migration assay, CyQuant readout (preliminary, Table 3); type: cell-based; conditions: 36 h, tested 200, 100, 50, 25, 10 μM
Experimental: 3. Chamber Cell Migration Assay (Table 3)
Cells were grown in an appropriate media to 70 to 80% confluence and incubated in serum and growth factor free media for 24 h. Cells were detached by typsin treatment, collected by centrifugation and resuspended in serum free media to a final concentration of 150,000 cells/mL. 400 μL of the cell suspension were loaded into a fibronectin coated insert for 24 well multidishes. 750 μL fully supplemented media were applied to the compartment under the insert. To both chambers the inhibitor was added at the intended concentration and the plates were incubated for 36 h at 37° C., 5% CO2. […] The resulting CyQuant assay solution was transferred to the cavities of a 96 well microtiter plate and the fluorescence signal was recorded in an appropriate reader. The CyQuant dye forms a highly fluorescent complex with DNA, thus the fluorescence signal is proportional to the number of cells that migrated throught he membrane in the presence of the test compound (N^inh). […] The positive control fluorescent reading correlates with the number of cells that migrate through the membrane in the absence of inhibitor (N^+). […] The negative control fluorescent reading correlates with the number of cells that migrate through the membrane through non-directed processes (N^−). The anti-migratory effect of a test compound is determined by the ratio (N^inh−N^−)/(N^+−N^−).

[2] = system: 4T1 mouse breast tumor cells; test: Boyden chamber cell migration assay with 4T1 tumor cells; type: cell-based; conditions: Mus musculus, read-out: IC50 (4T1 tumor cells)
Experimental: The biological evaluation of the compounds (in terms of their ability to inhibit cell migration) was accomplished in a Boyden chamber cell migration assay. In this assay, mouse breast tumor cells (4T1 cells) or endothelial cells (HUVECs) are seeded on the upper chamber of a transwell insert. Growth factor-containing serum is added to the lower chamber.
Chamber Cell Migration Assay (Tables 4 and 6): Cell migrations were assayed with Boyden chambers [8.0 μm pore size, polyethylene terephthalate membrane, FALCON cell culture insert (Becton-Dickinson)]. 4T1 mouse breast tumor cells or HUVECs were trypsinized and counted. 300 μl of 5-10×10^4 cells in serum-free medium was added to the upper chamber and 500 μl of medium with 10% fetal bovine serum (FBS) was added to the lower chamber. […] Cells on the inside of the transwell inserts were removed with a cotton swab, and cells on the underside of the insert were fixed and stained. Photographs of three random regions were taken and the number of cells was counted to calculate the average number of cells that have transmigrated.

[3] = system: HUVECs (human umbilical vein endothelial cells); test: Boyden chamber cell migration assay with HUVECs; type: cell-based; conditions: Homo sapiens, HUVEC, read-out: IC50 (HUVEC)
Experimental: Chamber Cell Migration Assay (Tables 4 and 6): Cell migrations were assayed with Boyden chambers [8.0 μm pore size, polyethylene terephthalate membrane, FALCON cell culture insert (Becton-Dickinson)]. 4T1 mouse breast tumor cells or HUVECs were trypsinized and counted. 300 μl of 5-10×10^4 cells in serum-free medium was added to the upper chamber and 500 μl of medium with 10% fetal bovine serum (FBS) was added to the lower chamber. The transwells were incubated for 6-8 h at 37° C. with different concentrations of chemical compound in both upper and lower chamber. Cells on the inside of the transwell inserts were removed with a cotton swab, and cells on the underside of the insert were fixed and stained. Photographs of three random regions were taken and the number of cells was counted to calculate the average number of cells that have transmigrated.

[4] = Mouse plasma stability study (HPLC); type: in vitro ADME; conditions: stable = intensity of HPLC signal unchanged over 60 min of incubation
Experimental: Mouse Plasma Stability Studies (Table 5): HPLC conditions: The sample is injected and separated using an Inertsil ODS3 6u 3×150 mm column with a mobile phase of MeCN and water (50% for migrastatin) at a flow of 0.4 mL/min, monitored at 220 nm at 0.02 AUFS (the retention time for migrastatin is ca. 4 min, the identity of this peak was confirmed by mass spectral analysis). Incubation and sample preparation conditions: A solution (ca. 30 mM) of chemical compound (Table 5) in DMSO is prepared. 2 μL of the solution is added to a mixture containing 200 μL of mouse plasma and 800 μL of PBS. The resulting solution is put into a water bath at 37° C., and 100 μL of sample is withdrawn at 10, 20, 30, 45, and 60 min. The precipitate is removed by centrifugation and 20 μL of the supernatant is injected onto the HPLC.

[5] = system: 4T1 mouse breast tumor cells; test: Wound-healing assay with 4T1 cells (FIG. 6); type: cell-based; conditions: with serum; 200 μM; overnight
Text: In the wound healing assay, standard scratches (i.e., wounds) were made through a confluent 4T1 cell layer. In the absence of serum, cells would not migrate across the empty space created by application of the scratch. Upon addition of serum containing migration-enabling factors, migration of 4T1 cells across the scratch was induced. Exposure to these cells to inventive compounds allowed the evaluation of the cell migration inhibitory activity of these compounds.
Wound-Healing Assay (See FIG. 6). 4T1 mouse breast tumor cells in RPMI-1640 medium containing 10% fetal bovine serum (FBS) were seeded into wells of 24-multiwell plates (Becton-Dickinson). After cells grew to confluence, wounds were made with sterile pipette tips. Cells were washed with Phosphate Buffered Saline (PBS) and refreshed with growth medium containing different concentrations of chemical compounds. After overnight incubation at 37° C., cells were fixed and photographed.

tumor cell migration = conditions: literature value for natural migrastatin; read-out: IC50, wound healing assay (reported activity); cited from earlier work
4T1 tumor cells = test: Cell proliferation assay (MTT); conditions: Mus musculus, 4T1, 48 h, read-out: IC50, 4T1 cell proliferation
Experimental: Cell Proliferation Assay: 4×10^4 of 4T1 tumor cells in RPMI-1640 medium containing 10% FBS were seeded into wells of 96-multiwell plates (Becton-Dickinson) in the presence or absence of chemical compounds and then incubated at 37° C. for 48 h. An MTT kit (Cell Proliferation Kit I, Roche) (a colorimetric assay) was used to quantify cell proliferation and viability. The number of living cells, thus the total metabolic activity, directly correlates to the amount of purple formazan crystals formed (monitored by the absorbance).

Compound CO[C@H]1/C=C/CC/C=C/C(=O)O[C@H]([C@H](C)C(=O)CCCC2CC(=O)NC(=O)C2)/C(C)=C\[C@@H](C)[C@@H]1O [migrastatin (1), Migrastatin] has a Minimum effect concentration (HUVEC) of 100 µM, a Minimum effect concentration [1] of 100 µM and an IC50 (cells) of 200 µM. The IC50 [2] was 29 µM, the IC50 [3] was 65 µM and the “stability (mouse plasma), in words” value [4] was “stable^1”. The “stability (mouse plasma), in words” value ([4]; listed as migrastatin) was “completely inert toward lactone opening”, the “inhibition of 4T1 cell migration across the scratch, in words” value [5] was “not as great” and the IC50 (tumor cell migration) was 29 µM. For the same compound, the IC50 (4T1 tumor cells) was 42 µM.
